In patent US20260191974A1, “B7-H3 TARGETING LIGANDS AND METHODS OF USE” (The University of North Carolina at Chapel Hill, priority 2022, published 2026):
pKd: −log10 of the molar value. Where a SMILES comes first, the peptide text is derived from it. Bridges are numbered along the chain shown (N, C = ends).

Columns and labels:
B7-H3 [1] = assay: kd (s^-1)
From the text: (§1) Table printed on a drawing sheet, FIG. 4F
Head of the field: kd (s^-1)
(§2) The patent's description of the figure: FIGS. 4A-4G. (FIG. 4A) Selection schematic detailing the selection process for identifying binders against B7-H3. (FIG. 4B) qPCR results of the mTG mediated B7-H3 selection. (FIG. 4C) B7-H3 selection results and complete NGS analysis of B7-H3 hits. (FIG. 4D) NGS data of the selection hits. […] Arrow indicates the peptide pursued for binding validation. (FIG. 4E) EIC ([M+2], 948.91 m/z) traces corresponding to the product of the mTG reaction with linear B1.1 peptide and the synthetic lactam, disulfide peptide. (FIG. 4F) Surface Plasmon Resonance (SPR) analysis of the selected peptide (B1.1), the Met9Nle variant, and the linear variant. […] The selected B1.1 and the Met9Nle variant were analyzed at analyte concentrations of 7.5, 15, 30, 60, 120 nM. The linear variant was analyzed at analyte concentrations of 50, 100, 200, 400, 800 nM. […] (FIG. 4G) Individual SPR curves. Fitted curve and raw data are shown.
(§3) First copying reader's note: Brackets drawn on the SELECTED and MET9NLE sequences join C to C (above) and Q to K (below), marking a bicyclic peptide; LINEAR has no brackets.
(§4) Where the first naming reader finds the target: passage: Binding affinities were assessed for each peptide by surface plasmon resonance (SPR) against biotinylated B7-H3.

murine B7-H3 (mB7-H3) = target: T1, murine B7-H3 (mB7-H3) (Mus musculus, UniProt Q8VE98); assay: SPR binding to murine B7-H3
T1 sequence (Q8VE98 29-316): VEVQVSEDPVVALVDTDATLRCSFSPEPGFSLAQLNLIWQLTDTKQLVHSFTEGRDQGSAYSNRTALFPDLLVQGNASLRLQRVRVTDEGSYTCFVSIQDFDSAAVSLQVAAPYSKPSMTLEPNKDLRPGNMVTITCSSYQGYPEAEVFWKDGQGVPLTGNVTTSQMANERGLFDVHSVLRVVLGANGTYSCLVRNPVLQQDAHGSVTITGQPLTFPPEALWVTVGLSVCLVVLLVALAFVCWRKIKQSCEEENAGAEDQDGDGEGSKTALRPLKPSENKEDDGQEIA
Experimental: FIGS. 24A-24C. SPR analysis of the selected peptides B1.1 and JP5. The B1.1 variant was analyzed at analyte concentrations of 7.5, 15, 30, 60, and 120 nM (FIG. 24A) and the JP5 variant was analyzed at analyte concentrations of 22.2, 66.6, 200, 600 and 1800 nM (FIG. 24B). (FIG. 24C) Binding kinetics of each peptide.
(§5) Surface Plasmon Resonance (SPR) analysis. Binding kinetics between our selected peptide (and variants) and biotinylated B7-H3 (B7-H3b) were assessed through SPR analysis using a BIACORE 8K SPR system (GE Healthcare). The running buffer was 1×PBS pH7.5, 0.05% TWEEN® 20 and all analysis was carried out at 25° C. B7-H3b was loaded onto a NeutrAvidin SPR Chip (Series S Sensor Chip NA, 29407997, Cytiva) at a flow rate of […] to a surface density of 1000-1500 response units. Analyte was then injected over a series of five concentrations and quantified by BIACORE single-cycle kinetics method. For our selected peptide (B1.1) and the Met9Nle variant a range of 7.5, 15, 30, 60, 120 nM were run. For the linear variant concentrations of 50, 100, 200, 400, 800 nM were run. Binding sonograms were generated using a standard 1:1 binding kinetics model and kinetics constants determined using standard BIACORE evaluation software.
Surface plasmon resonance was used to evaluate binding of B1.1 and JP5 to both human and murine B7-H3 (FIGS. 24A-24C).

biotinylated B7-H3 = target: T2, biotinylated B7-H3 (Homo sapiens, UniProt Q5ZPR3); assay: Surface Plasmon Resonance (SPR) analysis against biotinylated B7-H3; details: biotinylated B7-H3, 25° C., 1:1 binding kinetics model, read-out: binding affinity towards B7-H3
T2 sequence (Q5ZPR3 29-534): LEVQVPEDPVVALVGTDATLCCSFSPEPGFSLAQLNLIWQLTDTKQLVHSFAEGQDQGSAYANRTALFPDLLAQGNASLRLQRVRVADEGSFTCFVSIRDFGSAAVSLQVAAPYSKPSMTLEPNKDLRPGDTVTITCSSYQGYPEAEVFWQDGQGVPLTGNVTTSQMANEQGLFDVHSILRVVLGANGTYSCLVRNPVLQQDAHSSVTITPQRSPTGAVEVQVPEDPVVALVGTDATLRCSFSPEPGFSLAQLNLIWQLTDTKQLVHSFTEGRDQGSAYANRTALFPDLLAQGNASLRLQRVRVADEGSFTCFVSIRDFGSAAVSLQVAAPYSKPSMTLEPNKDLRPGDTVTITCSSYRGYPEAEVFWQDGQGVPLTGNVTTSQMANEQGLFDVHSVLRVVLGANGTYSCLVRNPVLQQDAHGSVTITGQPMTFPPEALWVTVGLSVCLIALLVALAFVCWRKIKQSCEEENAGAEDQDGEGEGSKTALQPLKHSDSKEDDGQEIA
From the text: as §2, with “FIGS.” for “The patent's description of the figure: FIGS.”
as §5

B7-H3 [2] = assay: ka (M^-1s^-1)
From the text: as §1
Head of the field: ka (M^-1s^-1)
as §2, §3, §4

kd (s^-1) (B7-H3 [1]): 6.74e^-3
KD (murine B7-H3 (mB7-H3)): binds to murine B7-H3
pKd (biotinylated B7-H3): 7.36
Compound: CSCC[C@@H]1NC(=O)[C@H](CO)NC(=O)[C@H](Cc2c[nH]cn2)NC(=O)[C@@H]2CSSC[C@H](NC(=O)[C@H]([C@@H](C)O)NC(=O)[C@H](Cc3ccc(O)cc3)NC(=O)[C@H](Cc3ccccc3)NC1=O)C(=O)N[C@H](C(=O)N[C@@H](CO)C(=O)NCC(N)=O)CCCCNC(=O)CC[C@H](NC(=O)[C@H](CC(C)C)NC(=O)[C@H](C)NC(=O)[C@H](Cc1c[nH]c3ccccc13)NC(C)=O)C(=O)N[C@@H](CC(C)C)C(=O)N2 [B1.1, acWALQLCHSMFYTCKSG] (Ac-WALELCHSMFYTCKSG-NH2; lactam 4-14; disulfide 6-13)
ka (M^-1s^-1) (B7-H3 [2]): 1.55e^5
